Where a name gives a salt, the structure may show the parent alone.

One test deals with T1, thromboxane synthetase from rabbit platelet microsomes (Oryctolagus cuniculus, UniProt G1TAZ9).
T1 construct: thromboxane synthetase from rabbit platelet microsomes; from tissue; host or cells: rabbit platelet microsomes
T1 sequence (G1TAZ9 1-530): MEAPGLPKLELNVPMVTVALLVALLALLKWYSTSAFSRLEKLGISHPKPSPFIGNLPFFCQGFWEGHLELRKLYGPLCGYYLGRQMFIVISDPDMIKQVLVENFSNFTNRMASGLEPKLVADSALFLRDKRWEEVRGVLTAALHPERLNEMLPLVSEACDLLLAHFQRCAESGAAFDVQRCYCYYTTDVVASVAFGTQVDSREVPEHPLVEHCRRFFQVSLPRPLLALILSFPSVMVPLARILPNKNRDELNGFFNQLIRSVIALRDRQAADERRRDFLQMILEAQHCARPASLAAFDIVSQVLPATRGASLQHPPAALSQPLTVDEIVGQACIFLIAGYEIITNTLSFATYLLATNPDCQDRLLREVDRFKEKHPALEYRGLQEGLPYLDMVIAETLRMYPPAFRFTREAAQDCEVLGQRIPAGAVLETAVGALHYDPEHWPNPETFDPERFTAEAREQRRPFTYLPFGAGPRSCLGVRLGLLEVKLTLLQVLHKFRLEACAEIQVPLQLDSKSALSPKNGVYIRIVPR
The experiment in a line: inhibition of thromboxane synthetase from rabbit platelet microsomes (conversion of prostaglandin H2 into thromboxane B2). It counts as biochemical.
Details: not given
As for `CCOC(=O)C(C)Oc1ccc(Cc2cccnc2)cc1` (centres unmarked) [2-[4-(3-Pyridylmethyl)phenoxy]propionic acid ethyl ester], the IC50 is 3 to 650 nM.

The test is the same for the next values; noted with them: rabbit platelet microsomes; one common range stated for all listed compounds; read-out: molar concentration producing a 50% inhibition of thromboxane synthetase.
Turning to `CC(C)(Cc1ccc(Cc2cccnc2)cc1)C(=O)O` [2,2-Dimethyl-3-[4-(3-pyridylmethyl)phenyl]propionic acid hydrochloride], the IC50 is 3 to 650 nM. In the case of `CC(C)(Oc1ccc(Cc2cccnc2)cc1)C(=O)O` [2-Methyl-2-[4-(3-pyridylmethyl)phenoxy]propionic acid hydrochloride], the IC50 lay in the range of 3 to 650 nM.

On to `CC(C)(Sc1ccc(Cc2cccnc2)cc1)C(=O)O` [2-Methyl-2-[4-(3-pyridylmethyl)phenylthio]propionic acid hydrochloride], for which the IC50 fell in the range of 3 to 650 nM. On the same count and under the same terms, the value for `CC(Cc1ccc(C(C)c2cccnc2)cc1)C(=O)O` (centres unmarked) [2-Methyl-3-[4-(1-3'-pyridylethyl)phenyl]propionic acid hydrochloride] was 3 to 650 nM.

In the case of `CCOC(=O)C(C)Cc1ccc(Cc2cccnc2)cc1` (centres unmarked) [2-Methyl-3-[4-(3-pyridylmethyl)phenyl]propionic acid ethyl ester], the IC50 lay in the range of 3 to 650 nM. As to `CC(Cc1ccc(Cc2cccnc2)cc1)C(=O)O` (centres unmarked) [2-Methyl-3-[4-(3-pyridylmethyl)phenyl]propionic acid hydrochloride], the IC50 was 3 to 650 nM. In the case of `O=C(O)COc1ccc(Cc2cccnc2)cc1` [2-[4-(3-Pyridylmethyl)phenoxy]acetic acid hydrochloride], the IC50 fell in the range of 3 to 650 nM. Same read-out and setting: for `CC(Oc1ccc(Cc2cccnc2)cc1)C(=O)O` (centres unmarked) [2-[4-(3Pyridylmethyl)phenoxy]propionic acid hydrochloride] the value was 3 to 650 nM. On the same count and under the same terms, for `CC(CC(=O)O)c1ccc(Cc2cccnc2)cc1` (centres unmarked) [3-[4-(3-Pyridylmethyl)phenyl]butyric acid hydrochloride] the value was 3 to 650 nM; for `CCOC(=O)CCc1ccc(Cc2cccnc2)cc1` [3-[4-(3-Pyridylmethyl)phenyl]propionic acid ethyl ester], 3 to 650 nM; for `O=C(O)CCc1ccc(Cc2cccnc2)cc1` [3-[4-(3-Pyridylmethyl)phenyl]propionic acid hydrochloride], 3 to 650 nM. `O=C(O)c1ccc(Cc2cccnc2)cc1` [4-(3-Pyridylmethyl)benzoic acid hydrochloride]: the IC50 was in the range of 3 to 650 nM. Turning to `CCOC(=O)COc1ccc(Cc2cccnc2)cc1` [4-(3-Pyridylmethyl)phenoxyacetic acid ethyl ester], the IC50 was in the range of 3 to 650 nM. Still for that read-out and setting: for `O=C(O)Cc1ccc(Cc2cccnc2)cc1` [4-(3-Pyridylmethyl)phenylacetic acid hydrochloride] the value was 3 to 650 nM; for `Oc1ccc(Cc2cccnc2)cc1` [4-(3-pyridylmethyl)phenol hydrochloride, 4-(3-Pyridylmethyl)phenol hydrochloride], 3 to 650 nM; for `O=C(O)/C(Br)=C/c1ccc(Cc2cccnc2)cc1` [(2)-2-Bromo-3-[4-(3-pyuridylemthyl)phenyl]acrylic acid hydrochloride], 3 to 650 nM.

On to `CC/C(=C\c1ccc(Cc2cccnc2)cc1)C(=O)O` [(E)-2-Ethyl-3-[4-(3-pyridylmethyl)phenyl]acrylic acid hydrochloride], for which the IC50 was in the range of 3 to 650 nM.

On to `CCOC(=O)/C(C)=C/c1cccc(Cc2cccnc2)c1` [(E)-2-Methyl-3-[3-(3-pyridylmethyl)phenyl]acrylic acid ethyl ester], for which the IC50 lay within 3 to 650 nM. Still for that read-out and setting: for `C/C(=C\c1cccc(Cc2cccnc2)c1)C(=O)O` [(E)-2-Methyl-3-[3-(3-pyridylmethyl)phenyl]acrylic acid hydrochloride] the value was 3 to 650 nM; for `CCOC(=O)/C(C)=C/c1ccc(Cc2cccnc2)c(C)c1` [(E)-2-Methyl-3-[3-Methyl-4-(3-pyridylmethyl)phenyl]acrylic acid ethyl ester], 3 to 650 nM; for `C/C(=C\c1ccc(Cc2cccnc2)c(C)c1)C(=O)O` [(E)-2-Methyl-3-[3-methyl-4-(3-pyridylmethyl)phenyl]acrylic acid hydrochloride], 3 to 650 nM. Consider `C/C(=C\c1ccc(C(C)c2cccnc2)cc1)C(=O)O` (centres unmarked) [(E)-2-Methyl-3-[4-(1-3'-pyridylethyl)phenyl]acrylic acid hydrochloride], for which the IC50 is 3 to 650 nM. For `C/C(=C\c1ccc(Cc2cccnc2)cc1)C(=O)O` [(E)-2-Methyl-3-[4-(3-pyridylmethyl)pehnyl]acrylic acid hydrochloride], the IC50 lay within 3 to 650 nM. Still for that read-out and setting: for `C/C(=C\c1ccc(Cc2cccnc2)cc1)C(=O)Oc1ccccc1C` [(E)-2-Methyl-3-[4-(3-pyridylmethyl)phenyl]acrylic acid 2-methylphenyl ester] the value was 3 to 650 nM; for `C/C(=C\c1ccc(Cc2cccnc2)cc1)C(=O)Oc1cccc(C(F)(F)F)c1` [(E)-2-Methyl-3-[4-(3-pyridylmethyl)phenyl]acrylic acid 3-trifluoromethylphenyl ester], 3 to 650 nM; for `C/C(=C\c1ccc(Cc2cccnc2)cc1)C(=O)OCc1ccccc1` [(E)-2-Methyl-3-[4-(3-pyridylmethyl)phenyl]acrylic acid benzyl ester], 3 to 650 nM. Consider `C/C(=C\c1ccc(Cc2cccnc2)cc1)C(=O)OCc1ccc(-c2ccccc2)cc1` [(E)-2-Methyl-3-[4-(3-pyridylmethyl)phenyl]acrylic acid biphenylmethyl ester], for which the IC50 lay in the range of 3 to 650 nM.

For `C/C(=C\c1ccc(Cc2cccnc2)cc1)C(=O)Oc1ccccc1` [(E)-2-Methyl-3-[4-(3-pyridylmethyl)phenyl]acrylic acid phenyl ester], the IC50 was in the range of 3 to 650 nM. Still for that read-out and setting: the value for `CCSC(=O)/C(C)=C/c1ccc(Cc2cccnc2)cc1` [(E)-2-Methyl-3-[4-(3-pyridylmethyl)phenyl]thioacrylic S-acid S-ethyl ester hydrochloride] was 3 to 650 nM.

For `C/C(=C\c1ccc(Cc2cnccc2C)cc1)C(=O)O` [(E)-2-Methyl-3-[4-(4-methyl-3-pyridylmethyl)phenyl]acrylic acid hydrochloride], the IC50 lay within 3 to 650 nM.

Consider `Cc1cc(/C=C/C(=O)O)ccc1Cc1cccnc1` [(E)-3-[3-Methyl-4-(3-pyridylmethyl)phenyl]acrylic acid hydrochloride], for which the IC50 lay within 3 to 650 nM. As to `O=C(O)/C=C/c1ccc(C(O)c2cccnc2)cc1` (centres unmarked) [(E)-3-[4-(3-Pyridylhydroxymethyl)phenyl]acrylic acid hydrochloride], the IC50 fell in the range of 3 to 650 nM.

Consider `C/C(=C\C(=O)O)c1ccc(Cc2cccnc2)cc1` [(E)-3-[4-(3-Pyridylmethyl)phenyl]-2-butenoic acid hydrochloride], for which the IC50 fell in the range of 3 to 650 nM. `O=C(O)/C=C/c1ccc(Cc2cccnc2)cc1` [(E)-3-[4-(3-Pyridylmethyl)phenyl]acrylic acid hydrochloride]: the IC50 lay within 3 to 650 nM.

In the case of `C/C(=C\c1ccc(Cc2cccnc2)s1)C(=O)O` [(E)-5-(3-Pyridylmethyl)-2-(2-carboxy-1-propenyl(thiophene hydrochloride], the IC50 is 3 to 650 nM. Same read-out and setting: the value for `O=C(O)/C=C/c1ccc(Cc2cccnc2)s1` [(E)-5-(3-Pyridylmethyl)-2-(2-carboxyvinyl)thiophene hydrochloride] was 3 to 650 nM; that for `COC(=O)/C(Br)=C/c1ccc(Cc2cccnc2)cc1` [(Z)-2-Bromo-3-[4-(3-pyridylmethyl)phenyl]acrylic acid methyl ester] was 3 to 650 nM.

Another test concerns thromboxane synthetase.
Assay: not given
To be noted: prior-art compounds, literature reports as judged by the applicant; cited from earlier work.
`Cn1ccnc1` [1-methylimidazole]: the “inhibitory activity on thromboxane synthetase” value (shortened to “inhibitory activity”) is recorded as “very weak”. `CCCCCC(O)C=CC1C2CC(N=N2)C1CC=CCCCC(=O)O` (centres unmarked) [9,11-azo-15-hydroxyprosta-5,13-dienoic acid]: the “inhibitory activity” value is listed as “very weak”. On to `CCCCCC(O)C=CC1C2COC(C2)C1CC=CCCCC(=O)O` (centres unmarked) [9,11-epoxymethano-15-hydroxyprosta-5,13-dienoic acid], for which the “inhibitory activity” value is “very weak”. With `CCCCCCCCC1C2COC(C2)C1CCCCCCC(=O)O` (centres unmarked) [9,11-epoxymethanoprostanoic acid], the “inhibitory activity” value is recorded as “very weak”.

Regarding `CC(C)c1[nH]c2ccccc2c1C(=O)c1cccnc1` [Example L-8027, 2-isopropyl-3-nicotinylindole], the “inhibitory activity” value was “very weak”. Consider `CCCCCC=CC[C@@H](C=CC=CCC=CCCCC(=O)O)OO` [HPETE, 12L-hydroperoxy-5,8,10,14-eicosatetraenoic acid], for which the “inhibitory activity” value is “very weak”.

Turning to `c1c[nH]cn1` [imidazole], the “inhibitory activity” value is given as “very weak”. With `CC(Cc1ccc(O)c(O)c1)C(C)Cc1ccc(O)c(O)c1` (centres unmarked) [nordihydroguaiaretic acid], the “inhibitory activity” value is “very weak”. In the case of “sodium p-benzyl-4-[1-oxo-2-(4-chlorobenzyl)-3-phenylpropyl]phenylphosphonate [Example N-0164]”, the “inhibitory activity” value is listed as “very weak”.

Source of the values: patent publication US4271170A, “Pyridine derivatives” (Ono Pharmaceutical Co., Ltd.,, priority 1978, dated 1981).
